These results are taken from patent US10882856B2 (BeiGene, Ltd., priority 2017, dated 2021).

Experiment [1] has as its target T1, IDO1 (Homo sapiens, UniProt P14902). The experiment in a line: Hela cell-based IDO1 assay. The note with it: Hela cells. The gist of the method:
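HeLa cells were seeded at 8000 per well in 96-well plates in phenol red-free DMEM with 10% FBS. After 4 hours, DMSO-diluted compound dilutions were added with IFN-γ (final 100 ng/mL) and 0.4 mM L-Trp, and cells were kept 48 hours at 37 °C, 5% CO2. Supernatant was deproteinised with trichloroacetic acid, and kynurenine was measured at 480 nm after adding 2% 4-(dimethylamino)benzaldehyde. Potency came from four-parameter logistic fits in XLfit.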

Experiment [2] deals with T2, cellular TDO2 in HEK293-TDO2 cells (Homo sapiens, UniProt P48775).
T2 construct: expressed in transfected cells; host or cells: HEK293 (ATCC), stably transfected
Kind of experiment: 293-TDO2 cell-based assay (Kyn colorimetric). To be noted: 48 hours of incubation. The gist of the method:
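Kyn formed from L-Trp was read colorimetrically at 480 nm (TCA deproteinisation, then 2% 4-(dimethylamino)benzaldehyde). Compounds were added to 293-TDO2 cells 4 h post-seeding and left 48 h at 37° C. A four-parameter logistic model gave IC50 values.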

For experiment [3], the target named is T1, IDO1. The experiment in a line: IDO1 enzymatic assay. It is filed as biochemical. The arrangement: His tag (N); made in house; host or cells: E. coli. To be noted: read-out: Enzyme IC50 IDO1. The gist of the method: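 Recombinant N-terminally His-tagged IDO1 purified from E. coli (50 nM) was incubated with compound or DMSO and 1.3 mM D-tryptophan, 5 mM L-ascorbic acid, methylene blue and 0.4 mg/mL catalase. The buffer was 50 mM potassium phosphate pH 7.5 with 0.1% BSA, at 24 °C for 1.5 hours. N'-formylkynurenine formation was then read continuously at 321 nm for 1 hour, and activity was taken as the slope. IC50 was calculated from remaining enzyme activity across increasing compound concentrations.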

T1 sequence (P14902 whole entry): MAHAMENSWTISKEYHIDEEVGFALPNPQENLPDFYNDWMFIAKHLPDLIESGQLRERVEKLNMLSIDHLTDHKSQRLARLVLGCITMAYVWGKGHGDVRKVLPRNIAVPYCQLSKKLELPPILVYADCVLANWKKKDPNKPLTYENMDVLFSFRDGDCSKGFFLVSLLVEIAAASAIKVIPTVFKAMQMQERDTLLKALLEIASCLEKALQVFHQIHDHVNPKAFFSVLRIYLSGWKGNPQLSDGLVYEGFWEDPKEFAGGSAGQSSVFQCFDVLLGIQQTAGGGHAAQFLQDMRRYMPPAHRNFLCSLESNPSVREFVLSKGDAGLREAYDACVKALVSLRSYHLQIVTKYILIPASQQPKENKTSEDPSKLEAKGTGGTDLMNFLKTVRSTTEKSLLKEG
T2 sequence (P48775 whole entry): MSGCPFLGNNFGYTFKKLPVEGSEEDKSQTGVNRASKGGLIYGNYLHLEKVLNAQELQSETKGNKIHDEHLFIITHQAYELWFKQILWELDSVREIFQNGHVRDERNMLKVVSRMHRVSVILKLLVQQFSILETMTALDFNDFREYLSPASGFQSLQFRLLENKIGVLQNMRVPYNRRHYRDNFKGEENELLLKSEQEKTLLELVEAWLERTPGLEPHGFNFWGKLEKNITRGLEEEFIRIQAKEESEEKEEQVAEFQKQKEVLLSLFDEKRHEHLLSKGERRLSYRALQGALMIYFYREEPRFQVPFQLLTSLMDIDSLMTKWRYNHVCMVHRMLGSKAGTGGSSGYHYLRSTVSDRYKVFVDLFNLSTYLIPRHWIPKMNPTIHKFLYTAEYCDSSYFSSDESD

Consider `OC(c1c(C2CC2)ccc2cncn12)C1CCC(c2cccc(F)c2F)CC1` (stereo not drawn) [Example D132, (6-cyclopropylimidazo[1,5-a]pyridin-5-yl)(4-(2,3-difluorophenyl)cyclohexyl)methanol], for which the concentration for a half-maximal effect (EC50) is 378 nM on IDO1 [1] and above 10 µM in experiment [2]. The IC50 on IDO1 [3] worked out at 55 nM.
`OC(c1c(C2CC2)ccc2cncn12)C1CCC(c2ccc3sccc3c2)CC1` (stereo not drawn) [Example D133, (4-(benzo[b]thiophen-5-yl)cyclohexyl)(6-cyclopropylimidazo[1,5-a]pyridin-5-yl)methanol]: the values for the EC50 (at IDO1 [1]; in experiment [2]) were 496 nM and above 10 µM, respectively. Further, the IC50 on IDO1 [3] was 44 nM.
For `OC(c1c(C2CC2)ccc2cncn12)C1CCC(c2ccc3ccsc3c2)CC1` (stereo not drawn) [Example D134, (4-(benzo[b]thiophen-6-yl)cyclohexyl)(6-cyclopropylimidazo[1,5-a]pyridin-5-yl)methanol] the same measures were 364 nM, above 10 µM and 61 nM.
With `OC(c1c(C2CC2)ccc2cncn12)C1CCC(c2cccc3ccccc23)CC1` (stereo not drawn) [Example D135, (6-cyclopropylimidazo[1,5-a]pyridin-5-yl)(4-(naphthalen-1-yl)cyclohexyl)methanol], the EC50 on IDO1 [1] is 32 nM; in experiment [2], above 10 µM. The IC50 on IDO1 [3] came out at 32 nM.
As to `OC(c1c(C2CC2)ccc2cncn12)C1CCC(c2ccc3ccccc3c2)CC1` (stereo not drawn) [Example D136, (6-cyclopropylimidazo[1,5-a]pyridin-5-yl)(4-(naphthalen-2-yl)cyclohexyl)methanol], the EC50 on IDO1 [1] is 358 nM; in experiment [2] it was above 10 µM. For the same molecule, on IDO1 [3], the concentration for half-maximal inhibition (IC50) was found to be 51 nM.
With `OC(c1c(C2CC2)ccc2cncn12)C1CCC(c2ccc(F)c3ccccc23)CC1` (stereo not drawn) [Example D137, (6-cyclopropylimidazo[1,5-a]pyridin-5-yl)(4-(4-fluoronaphthalen-1-yl)cyclohexyl)methanol], the figures for the EC50 (at IDO1 [1]; in experiment [2]) were 98 nM and above 10 µM, respectively. The concentration for half-maximal inhibition (IC50) at IDO1 [3] is 62 nM.
On to `Oc1ccc(C2CCC(C(O)c3c(C4CC4)ccc4cncn34)CC2)c2ccccc12` (stereo not drawn) [Example D138, (6-cyclopropylimidazo[1,5-a]pyridin-5-yl)(4-(4-hydroxynaphthalen-1-yl)cyclohexyl)methanol], for which the half-maximal effective concentration (EC50) at IDO1 [1] is 583 nM; in experiment [2], above 10 µM. The IC50 on IDO1 [3] amounted to 62 nM.
For `COc1ccc(C2CCC(C(O)c3c(C4CC4)ccc4cncn34)CC2)c2ccccc12` (stereo not drawn) [Example D139, (6-cyclopropylimidazo[1,5-a]pyridin-5-yl)(4-(4-methoxynaphthalen-1-yl)cyclohexyl)methanol] the same measures were 977 nM, above 10 µM and 75 nM.
In the case of `OC(c1c(C2CC2)ccc2cncn12)C1CCC(c2ccnc3ccccc23)CC1` (stereo not drawn) [Example D140, (6-cyclopropylimidazo[1,5-a]pyridin-5-yl)(4-(quinolin-4-yl)cyclohexyl)methanol], the EC50 was 42 nM at IDO1 [1] and above 10 µM in experiment [2]. Besides, the IC50 on IDO1 [3] came to 24 nM.
For `OC(c1c(C2CC2)ccc2cncn12)C1CCC(c2cccc3ncccc23)CC1` (stereo not drawn) [Example D141, (6-cyclopropylimidazo[1,5-a]pyridin-5-yl)(4-(quinolin-5-yl)cyclohexyl)methanol] the same measures were 21 nM, above 10 µM and 23 nM.
For `Oc1cccc(C2CCC(C(O)c3c(C4CC4)ccc4cncn34)CC2)c1` (stereo not drawn) [Example D142, 3-(4-((6-cyclopropylimidazo[1,5-a]pyridin-5-yl)(hydroxy)methyl)cyclohexyl)phenol] the same measures were 40 nM, above 10 µM and 32 nM.
As to `COc1cccc(C2CCC(C(O)c3c(C4CC4)ccc4cncn34)CC2)c1` (stereo not drawn) [Example D143, (6-cyclopropylimidazo[1,5-a]pyridin-5-yl)(4-(3-methoxyphenyl)cyclohexyl)methanol], the figures for the EC50 (at IDO1 [1]; in experiment [2]) were 62 nM and above 10 µM, respectively. In addition, the IC50 at IDO1 [3] worked out at 33 nM.
In the case of `OC(c1c(C2CC2)ccc2cncn12)C1CCC(c2cc(F)cc(F)c2)CC1` (stereo not drawn) [Example D144, (6-cyclopropylimidazo[1,5-a]pyridin-5-yl)(4-(3,5-difluorophenyl)cyclohexyl)methanol], the EC50 on IDO1 [1] is 96 nM; in experiment [2] it was above 10 µM. Further, the half-inhibitory concentration (IC50) at IDO1 [3] was found to be 42 nM.
With `OC(c1c(C2CC2)ccc2cncn12)C1CCC(c2ccc(F)c(F)c2F)CC1` (stereo not drawn) [Example D145, (6-cyclopropylimidazo[1,5-a]pyridin-5-yl)(4-(2,3,4-trifluorophenyl)cyclohexyl)methanol], the EC50 on IDO1 [1] is 462 nM; in experiment [2], above 10 µM. Besides, the IC50 at IDO1 [3] worked out at 54 nM.
With `COc1ccc(C2CCC(C(O)c3c(C4CC4)ccc4cncn34)CC2)c(F)c1` (stereo not drawn) [Example D146, (6-cyclopropylimidazo[1,5-a]pyridin-5-yl)(4-(2-fluoro-4-methoxyphenyl)cyclohexyl)methanol], the EC50 on IDO1 [1] is 210 nM; in experiment [2], above 10 µM. Also, the IC50 at IDO1 [3] came to 28 nM.
As to `COc1ccc(C2CCC(C(O)c3c(C4CC4)ccc4cncn34)CC2)c(Cl)c1` (stereo not drawn) [Example D147, (4-(2-chloro-4-methoxyphenyl)cyclohexyl)(6-cyclopropylimidazo[1,5-a]pyridin-5-yl)methanol], the results for the EC50 (on IDO1 [1]; in experiment [2]) were 443 nM and above 10 µM, respectively. For the same molecule, on IDO1 [3], the IC50 stood at 43 nM.
On to `COc1ccc(C2CCC(C(O)c3c(C4CC4)ccc4cncn34)CC2)cc1Cl` (stereo not drawn) [Example D148, (4-(3-chloro-4-methoxyphenyl)cyclohexyl)(6-cyclopropylimidazo[1,5-a]pyridin-5-yl)methanol], for which the EC50 at IDO1 [1] is 188 nM; in experiment [2], above 10 µM. Moreover, the half-maximal inhibitory concentration (IC50) on IDO1 [3] was 40 nM.
Regarding `OC(c1c(C2CC2)ccc2cncn12)C1CCC(c2cc(F)c(F)cc2F)CC1` (stereo not drawn) [Example D149, (6-cyclopropylimidazo[1,5-a]pyridin-5-yl)(4-(2,4,5-trifluorophenyl)cyclohexyl)methanol], the half-maximal effective concentration (EC50) at IDO1 [1] was 492 nM; in experiment [2], above 10 µM. For the same molecule, the IC50 on IDO1 [3] is 26 nM.
Take `OC(c1c(C2CC2)ccc2cncn12)C1CCC(c2ccnc3ccc(F)cc23)CC1` (stereo not drawn) [Example D150, (6-cyclopropylimidazo[1,5-a]pyridin-5-yl)(4-(6-fluoroquinolin-4-yl)cyclohexyl)methanol]: the results for the 50% effective concentration (EC50) (at IDO1 [1]; in experiment [2]) were 37 nM and above 10 µM, respectively. Further, on IDO1 [3], the half-maximal inhibitory concentration (IC50) worked out at 36 nM.
`CC(=O)COc1ccc([C@H]2CC[C@H]([C@H](O)c3c(C4CC4)ccc4cncn34)CC2)cc1` [Example D151, 1-(4-((1 S,4r)-4-((S)-(6-cyclopropylimidazo[1,5-a]pyridin-5-yl)(hydroxy)methyl)cyclohexyl)phenoxy)propan-2-one]: the figures for the EC50 (at IDO1 [1]; in experiment [2]) were 33 nM and above 10 µM, respectively. Also, the IC50 on IDO1 [3] was 15 nM.
For `O=C(COc1ccc([C@H]2CC[C@H]([C@H](O)c3c(C4CC4)ccc4cncn34)CC2)cc1)c1ccccc1` [Example D152, 2-(4-((1S,4r)-4-((S)-(6-cyclopropylimidazo[1,5-a]pyridin-5-yl)(hydroxy)methyl)cyclohexyl)henoxy)-1-phenylethan-1-one] the same measures were 118 nM, above 10 µM and 37 nM.
For `NC(=O)c1ccc([C@H]2CC[C@H]([C@H](O)c3c(C4CC4)ccc4cncn34)CC2)cc1` [Example D153, 4-((1S,4r)-4-(S)-(6-cyclopropylimidazo[1,5-a]pyridin-5-yl(hydroxy)methyl)cyclohexyl)benzamide] the same measures were 145 nM, above 10 µM and 11 nM.
As for `OC(c1c(C2CC2)ccc2cncn12)C1CCC(c2cc3ccccc3s2)CC1` (stereo not drawn) [Example D154, (4-(benzo[b]thiophen-2-yl)cyclohexyl)(6-cyclopropylimidazo[1,5-a]pyridin-5-yl)methanol], the EC50 at IDO1 [1] is 648 nM; in experiment [2], above 10 µM. Moreover, the half-maximal inhibitory concentration (IC50) on IDO1 [3] is 68 nM.
Turning to `OC(c1c(C2CC2)ccc2cncn12)C1CCC(c2csc3ccccc23)CC1` (stereo not drawn) [Example D155, (4-(benzo[b]thiophen-3-yl)cyclohexyl)(6-cyclopropylimidazo[1,5-a]pyridin-5-yl)methanol], the EC50 at IDO1 [1] is 87 nM; in experiment [2], above 10 µM. The 50% inhibitory concentration (IC50) at IDO1 [3] was determined as 70 nM.
In the case of `OC(c1c(C2CC2)ccc2cncn12)C1CCC(c2cccc(F)c2)CC1` (stereo not drawn) [Example D156, (6-cyclopropylimidazo[1,5-a]pyridin-5-yl)(4-(3-fluorophenyl)cyclohexyl)methanol], the concentration giving a half-maximal response (EC50) on IDO1 [1] was 75 nM; in experiment [2], above 10 µM. Also, at IDO1 [3], the IC50 was 57 nM.
For `OC(c1c(C2CC2)ccc2cncn12)C1CCC(c2ccc3ncccc3c2)CC1` (stereo not drawn) [Example D157, (6-cyclopropylimidazo[1,5-a]pyridin-5-yl)(4-(quinolin-6-yl)cyclohexyl)methanol] the same measures were 75 nM, above 10 µM and 31 nM.
